Data on ten compounds can be found in ChEMBL document CHEMBL4342421, “Current scenario of tetrazole hybrids for antibacterial activity” (Eur J Med Chem, 2019).

Assay [1] relates to Escherichia coli. The assay can be described thus: Antimicrobial activity against Escherichia coli assessed as zone of inhibition at 250 ug/ml after 24 hrs by disk diffusion method. It is filed as functional. The following applies: read-out: IZ. In general terms: Agar diffusion results depend on both activity and mobility in agar.
Assay [2] concerns Staphylococcus aureus. The assay can be described thus: Antimicrobial activity against Staphylococcus aureus. It is filed as functional.
Assay [3] deals with Candida albicans. The assay can be described thus: Antifungal activity against Candida albicans assessed as zone of inhibition at 250 ug/ml. Format: functional. The following applies: read-out: IZ.
The test system of assay [4] is Escherichia coli. The assay can be described thus: Antimicrobial activity against Escherichia coli assessed as zone of inhibition at 250 ug/ml. It is filed as functional. The following applies: read-out: IZ.
The subject of assay [5] is Aspergillus niger. The assay can be described thus: Antifungal activity against Aspergillus niger. It is filed as functional.
The subject of assay [6] is Bacillus cereus. The assay can be described thus: Antimicrobial activity against Bacillus cereus assessed as zone of inhibition at 250 ug/ml. It is filed as functional. The following applies: read-out: IZ.
Assay [7] relates to Aspergillus niger. The assay can be described thus: Antifungal activity against Aspergillus niger assessed as zone of inhibition at 250 ug/ml. Format: functional. The following applies: read-out: IZ.
Assay [8] has as its system Pseudomonas aeruginosa. The assay can be described thus: Antimicrobial activity against Pseudomonas aeruginosa assessed as zone of inhibition at 250 ug/ml. Format: functional. The following applies: read-out: IZ.
Assay [9] deals with Pseudomonas aeruginosa. The assay can be described thus: Antimicrobial activity against Pseudomonas aeruginosa. It is filed as functional.
Assay [10] concerns Bacillus cereus. The assay can be described thus: Antimicrobial activity against Bacillus cereus. Format: functional.
In assay [11] the test system is Escherichia coli. The assay can be described thus: Antimicrobial activity against Escherichia coli. It is filed as functional.
The test system of assay [12] is Staphylococcus aureus. The assay can be described thus: Antimicrobial activity against Staphylococcus aureus assessed as zone of inhibition at 250 ug/ml. Format: functional. The following applies: read-out: IZ.
For assay [13], the system named is Candida albicans. The assay can be described thus: Antifungal activity against Candida albicans. Format: functional.
For assay [14], the system named is Aspergillus flavus. The assay can be described thus: Antifungal activity against Aspergillus flavus. It is filed as functional.
The subject of another assay is Fusarium oxysporum. The assay can be described thus: Antifungal activity against Fusarium oxysporum. It is filed as functional.
The test system of the next assay is Pseudomonas. The assay can be described thus: Antimicrobial activity against Pseudomonas assessed as zone of inhibition at 10 ug/ml. It is filed as functional. The following applies: read-out: IZ.
The subject of the next assay is Streptomyces. The assay can be described thus: Antimicrobial activity against Streptomyces assessed as zone of inhibition at 10 ug/ml. It is filed as functional. The following applies: read-out: IZ.
The subject of assay [15] is Escherichia coli. The assay can be described thus: Antimicrobial activity against Escherichia coli assessed as zone of inhibition at 10 ug/ml. It is filed as functional. The following applies: read-out: IZ.
Assay [16] deals with Candida albicans. The assay can be described thus: Antifungal activity against Candida albicans assessed as zone of inhibition at 10 ug/ml. Format: functional. The following applies: read-out: IZ.
Assay [17] has as its system Aspergillus niger. The assay can be described thus: Antifungal activity against Aspergillus niger assessed as zone of inhibition at 10 ug/ml. It is filed as functional. The following applies: read-out: IZ.
In another assay the test system is Penicillium. The assay can be described thus: Antifungal activity against Penicillium assessed as zone of inhibition at 10 ug/ml. Format: functional. The following applies: read-out: IZ.
A further assay has as its system Lactococcus lactis. The assay can be described thus: Antimicrobial activity against Streptococcus lactis assessed as zone of inhibition at 10 ug/ml. It is filed as functional. The following applies: read-out: IZ.
For assay [18], the system named is Bacillus subtilis. The assay can be described thus: Antimicrobial activity against Bacillus subtilis assessed as zone of inhibition at 10 ug/ml. Format: functional. The following applies: read-out: IZ.
Assay [19] is described as follows: Antifungal activity against Rhodotorula ingeniosa assessed as zone of inhibition at 10 ug/ml. It is filed as functional. The following applies: Sampaiozyma ingeniosa; read-out: IZ.
The subject of assay [20] is Escherichia coli. The assay can be described thus: Antimicrobial activity against Escherichia coli assessed as zone of inhibition at 5 mg/ml. It is filed as functional. The following applies: read-out: IZ.
Assay [21] has as its system Staphylococcus aureus. The assay can be described thus: Antimicrobial activity against Staphylococcus aureus assessed as zone of inhibition at 5 mg/ml. It is filed as functional. The following applies: read-out: IZ.
The test system of assay [22] is Pseudomonas aeruginosa. The assay can be described thus: Antimicrobial activity against Pseudomonas aeruginosa assessed as zone of inhibition at 5 mg/ml. It is filed as functional. The following applies: read-out: IZ.
For a further assay, the system named is Klebsiella pneumoniae. The assay can be described thus: Antimicrobial activity against Klebsiella pneumoniae assessed as zone of inhibition at 5 mg/ml. It is filed as functional. The following applies: read-out: IZ.
The next assay relates to Salmonella typhimurium. The assay can be described thus: Antimicrobial activity against Salmonella typhimurium. Format: functional, Salmonella enterica subsp. enterica serovar Typhimurium. The following applies: Salmonella enterica.
A further assay relates to Proteus mirabilis. The assay can be described thus: Antimicrobial activity against Proteus mirabilis. It is filed as functional.
A further assay deals with Prescottella equi. The assay can be described thus: Antimicrobial activity against Rhodococcus equi. The following applies: Rhodococcus (subgen. Prescottella) equi. It is filed as functional.
In assay [23] the test system is Bacillus subtilis. The assay can be described thus: Antimicrobial activity against Bacillus subtilis. It is filed as functional.
A further assay concerns Streptococcus pneumoniae. The assay can be described thus: Antimicrobial activity against Streptococcus pneumoniae. Format: functional.
The test system of the next assay is Bacillus thuringiensis. The assay can be described thus: Antimicrobial activity against Bacillus thuringiensis. It is filed as functional.
In the next assay the test system is Proteus vulgaris. The assay can be described thus: Antimicrobial activity against Proteus vulgaris. It is filed as functional.
Assay [24] deals with Pseudomonas aeruginosa. The assay can be described thus: Antimicrobial activity against Pseudomonas aeruginosa ATCC 27853 after 24 hrs by two-fold broth serial dilution method. It is filed as functional. The following applies: ATCC 27853, 24 h.
Assay [25] relates to Bacillus subtilis. The assay can be described thus: Antibacterial activity against Bacillus subtilis ATCC 21216 after 24 hrs by two-fold broth serial dilution method. Format: functional. The following applies: ATCC 21216, 24 h.
A further assay deals with Cyberlindnera jadinii. The assay can be described thus: Antifungal activity against Candida utilis after 24 hrs. It is filed as functional. The following applies: Williopsis jadinii.
For assay [26], the system named is Escherichia coli. The assay can be described thus: Antimicrobial activity against Escherichia coli JM 109 after 24 hrs by two-fold broth serial dilution method. Format: functional. The following applies: JM 109, 24 h.
Assay [27] relates to Staphylococcus aureus. The assay can be described thus: Antibacterial activity against methicillin resistant Staphylococcus aureus N315 after 24 hrs by two-fold broth serial dilution method. Format: functional. The following applies: N315, 24 h.
The subject of the next assay is Pichia norvegensis. The assay can be described thus: Antifungal activity against Candida mycoderma after 24 hrs. It is filed as functional.
For a further assay, the system named is Shigella dysenteriae. The assay can be described thus: Antimicrobial activity against Shigella dysenteriae after 24 hrs by two-fold broth serial dilution method. Format: functional.
Assay [28] relates to Aspergillus flavus. The assay can be described thus: Antifungal activity against Aspergillus flavus after 24 hrs. Format: functional.
The subject of a further assay is Saccharomyces cerevisiae. The assay can be described thus: Antifungal activity against Saccharomyces cerevisiae after 24 hrs. Format: functional.
Assay [29] deals with Candida albicans. The assay can be described thus: Antifungal activity against Candida albicans ATCC 76615 after 24 hrs. The following applies: ATCC 76615, 24 h. Format: functional.
The subject of a further assay is Micrococcus luteus. The assay can be described thus: Antibacterial activity against Micrococcus luteus ATCC 4698 after 24 hrs by two-fold broth serial dilution method. It is filed as functional. The following applies: ATCC 4698, 24 h.

By MIC is commonly meant the least concentration at which growth counts as inhibited.

SMILES strings stand for the structures. In brackets after ≈: the same amount, converted by molar mass.

For the compound `O=[N+]([O-])c1cccc(-c2nnnn2-c2nc3ccccc3s2)c1`, the zone of inhibition at 250 µg/mL is 18 to 26 mm with Escherichia coli [1]; 16 to 26 mm in the assay on Candida albicans [3]; 16 to 26 mm with Escherichia coli [4]; 16 to 26 mm with Bacillus cereus [6]; 16 to 26 mm with Aspergillus niger [7]; 16 to 26 mm in the assay on Pseudomonas aeruginosa [8]. In addition, the zone of inhibition at 250 µg/mL in the assay on Staphylococcus aureus [12] was 16 to 26 mm. In addition, the minimum inhibitory concentration (MIC) in the assay with Staphylococcus aureus [2], with Aspergillus niger [5], against Pseudomonas aeruginosa [9], against Bacillus cereus [10], against Escherichia coli [11] and against Candida albicans [13] was 50 to 100 µg/mL (≈ 154 to 308 µM) in each case.

For `COc1ccc(-n2cc(-c3nnn[nH]3)nn2)cc1`, the MIC with Aspergillus niger [5], in the assay on Aspergillus flavus [14] and in the assay on Fusarium oxysporum was 100 µg/mL (≈ 411 µM) throughout.

Consider `CC(=O)OC[C@H]1O[C@H](n2nnnc2Cn2nnc3ccccc32)[C@H](OC(C)=O)[C@@H](OC(C)=O)[C@@H]1OC(C)=O`, for which the zone of inhibition at 10 µg/mL with Pseudomonas, with Streptomyces, in the assay with Escherichia coli [15], in the assay with Candida albicans [16], in the assay on Aspergillus niger [17] and with Penicillium was 15 to 17 mm each time. The zone of inhibition at 10 µg/mL (in the assay on Lactococcus lactis; in the assay on Bacillus subtilis [18]; in assay [19]) was 15 to 17 mm in each case.

With `OC[C@H]1O[C@H](n2nnnc2Cn2nnc3ccccc32)[C@H](O)[C@@H](O)[C@@H]1O`, the zone of inhibition at 10 µg/mL in the assay on Pseudomonas, in the assay on Streptomyces, in the assay with Escherichia coli [15], in the assay on Candida albicans [16], with Aspergillus niger [17] and in the assay on Penicillium was 11 to 15 mm each time. Besides, the zone of inhibition at 10 µg/mL (in the assay on Lactococcus lactis; in the assay on Bacillus subtilis [18]; in assay [19]) was 11 to 15 mm throughout.

In the case of `Cc1nc2ccccc2cc1Cn1cc(CSc2nnnn2-c2ccccc2)nn1`, the zone of inhibition at 5000 µg/mL in the assay on Escherichia coli [20], in the assay with Staphylococcus aureus [21], in the assay with Pseudomonas aeruginosa [22] and in the assay on Klebsiella pneumoniae was 11 to 19 mm throughout.

As to `Cc1nnc(SCC2=C(C(=O)O)N3C(=O)[C@@H](NC(=O)Cn4cnnn4)[C@H]3SC2)s1` [CEFAZOLIN], the minimal inhibitory concentration (MIC) in the assay on Salmonella typhimurium, in the assay on Proteus mirabilis, against Prescottella equi, in the assay with Bacillus subtilis [23], in the assay with Streptococcus pneumoniae and in the assay with Bacillus thuringiensis was 0.063 to 8 µg/mL (≈ 0.139 to 17.6 µM) each time. The MIC with Proteus vulgaris was 0.063 to 8 µg/mL (≈ 0.139 to 17.6 µM).

On to `CO/N=C(\C(=O)N[C@@H]1C(=O)N2C(C(=O)O)=C(CSc3nc(=O)c(O)nn3C)CS[C@H]12)c1csc(N)n1` [CEFTRIAXONE], for which the MIC with Salmonella typhimurium, against Proteus mirabilis, with Prescottella equi, with Bacillus subtilis [23], in the assay on Streptococcus pneumoniae and against Bacillus thuringiensis was 0.063 to 8 µg/mL (≈ 0.114 to 14.4 µM) each time. In addition, the MIC in the assay on Proteus vulgaris fell in the range of 0.063 to 8 µg/mL (≈ 0.114 to 14.4 µM).

Take `Clc1ccccc1C(c1ccccc1)(c1ccccc1)n1ccnc1` [CLOTRIMAZOLE]: the MIC in the assay on Aspergillus niger [5], against Aspergillus flavus [14] and in the assay on Fusarium oxysporum was 100 µg/mL (≈ 290 µM) throughout.

As to `OC(Cn1cncn1)(Cn1cncn1)c1ccc(F)cc1F` [FLUCONAZOLE], the MIC is 1 to 256 µg/mL (≈ 3.27 to 836 µM) with Pseudomonas aeruginosa [24]; 1 to 256 µg/mL (≈ 3.27 to 836 µM) with Bacillus subtilis [25]; 1 to 256 µg/mL (≈ 3.27 to 836 µM) against Cyberlindnera jadinii; 1 to 256 µg/mL (≈ 3.27 to 836 µM) in the assay on Escherichia coli [26]; 1 to 256 µg/mL (≈ 3.27 to 836 µM) in the assay on Staphylococcus aureus [27]; 25 µg/mL (≈ 81.6 µM) against Staphylococcus aureus [2]. Further, the MIC against Pichia norvegensis is 1 to 256 µg/mL (≈ 3.27 to 836 µM); in the assay with Shigella dysenteriae, 1 to 256 µg/mL (≈ 3.27 to 836 µM); with Aspergillus niger [5] it was 25 µg/mL (≈ 81.6 µM); in the assay on Aspergillus flavus [28], 1 to 256 µg/mL (≈ 3.27 to 836 µM); against Saccharomyces cerevisiae, 1 to 256 µg/mL (≈ 3.27 to 836 µM); in the assay with Candida albicans [29], 1 to 256 µg/mL (≈ 3.27 to 836 µM). Besides, the MIC in the assay with Pseudomonas aeruginosa [9] was 25 µg/mL (≈ 81.6 µM); against Micrococcus luteus, 1 to 256 µg/mL (≈ 3.27 to 836 µM); with Escherichia coli [11], 25 µg/mL (≈ 81.6 µM); against Candida albicans [13] it was 25 µg/mL (≈ 81.6 µM).

With `CCn1cc(C(=O)O)c(=O)c2cc(F)c(N3CCN(C)CC3)cc21` [PEFLOXACIN], the zone of inhibition at 5000 µg/mL with Escherichia coli [20], in the assay on Staphylococcus aureus [21], in the assay with Pseudomonas aeruginosa [22] and in the assay on Klebsiella pneumoniae was 28 to 36 mm each time.
